Assay results reported in patent publication US12721832B2, “Anti-senescence plant polyphenol drug downregulating senescence-related secretory phenotype and use thereof” (BYHEALTH CO., LTD., priority 2021, dated 2026).

Key:
HUVECs = settings: cited from earlier work
[1] = test system: senescent human preadipocytes; settings: cited from earlier work
[2] = test system: IMR90 fetal lung fibroblast-like cell lines; settings: culture-adapted; cited from earlier work
[3] = test system: senescent primary human lung fibroblasts; settings: cited from earlier work
[4] = test system: PC3/PSC27 xenograft tumors; assay: PC3/PSC27 xenograft tumor terminal volume in NOD/SCID mice; assay type: in vivo; settings: for tumor volume, drug used alone: chemotherapeutic drug alone; for tumor volume, drug administered together with PCC1: chemotherapeutic drug combined with PCC1, end of 8th week
From the text: Every two weeks was a dosing cycle, and MIT (mitoxantrone) was intraperitoneally administered to the mice on the first day of the 3rd/5th/7th weeks. From the first day of the 5th week, the mice were intraperitoneally administrated with PCC1, once a week. After the 8-week course of treatment, the mice were dissected for pathological identification and expression analysis.
Chemotherapeutic drug MIT alone or together with anti-senescence drug PCC1 was used to administer mice, and after the 8th week, the tumor size of each group was compared and analyzed.
All experimental mouse experiments were carried out in strict accordance with the relevant regulations of the Institutional Animal Care and Use Committee (IACUC), Shanghai Institutes for Biological Sciences, Chinese Academy of Sciences. Immunodeficient mice (NOD-SCID mice, ICR) (body weight about 25 g) aged 6-8 weeks were used for animal experiments related to the present patent. Stromal cells PSC27 and epithelial cells PC3 were mixed at a predetermined ratio of 1:4, and each graft contained 1.25×10^6 cells for tissue remodeling. The xenograft tumors were implanted into mice by subcutaneous transplantation, and the animals were euthanized 8 weeks after the end of the transplantation surgery. Tumor volume was calculated according to the following formula: V=(π/6)×[…] (V, volume; l, length; w, width).
(§1) In a preclinical treatment trial, subcutaneously transplanted mice were fed with a standard experimental diet, after 2 weeks chemotherapy drugs mitoxantrone (MIT, dose: 0.2 mg/kg) and/or procyanidin C1 (PCC1) (500 μl, dose: 10 mg/kg) via intraperitoneal administration. The time points were: the former was administrated on the first day of the 3rd, 5th and 7th weeks, and the latter was administrated on the first day of the 5th and 7th weeks. A total of 3 cycles of MIT administration were carried out throughout the course of treatment, and each cycle lasted for 2 weeks. After the course of treatment, mouse tumors were harvested for volume measurement and histological analysis. Each mouse cumulatively received 0.6 mg/kg body weight of MIT and […] body weight of PCC1. In order to cause systemic expression of SASP factor induced by chemotherapy, MIT was administered to mice through […] according to the above steps and sequence, but the dose was reduced to 0.1 mg/kg body weight/each time (the cumulative dose of MIT received in the whole course of treatment was 0.3 mg/kg body weight) to reduce drug-related toxicity. The chemotherapy experiment ended at the end of the 8th week, and the mice were dissected immediately after sacrifice, and the xenograft tumors were collected and used for pathological system analysis.

[5] = test system: senescent cells in tumor tissue; assay: SA-β-Gal staining of tumor tissue in PC3/PSC27 tumor-bearing mice; assay type: in vivo; settings: MIT alone
Method: Representative pictures after SA-β-Gal staining. Scale bar, 100 μm.
A P>0.05; **, P<0.01; ***, P<0.001.
as §1, with “The chemotherapy experiment ended at the end of the 8th week, and the mice were dissected immediately after sacrifice, and the xenograft tumors were collected and used for pathological system analysis.” left out

SASP factors = assay: LCM and qRT-PCR of SASP factors in mouse lesions; assay type: in vivo, mice; settings: MIT, mainly in stromal cells
Method: The stromal cells and cancer cells were specifically separated by LCM technology, total RNA was prepared and used for SASP expression detection. A P>0.05; *, P<0.05; **, P<0.01; ***, P<0.001.
as §1, with “The chemotherapy experiment ended at the end of the 8th week, and the mice were dissected immediately after sacrifice, and the xenograft tumors were collected and used for pathological system analysis.” left out

[6] = test system: cancer cells in the lesion; assay: DNA damage and apoptosis in tumor lesions (LCM, caspase 3 cleavage IHC); assay type: in vivo, mice; settings: single agent vs placebo, 7 days after first PCC1 administration
From the text: The signals of Caspase 3 cleaved […] in the lesion of each group of mice were in sharp contrast. Scale bar, 200 μm.
To investigate mechanisms directly supporting this senescence-associated pattern with expression and reversal of SASP in MIT-administered mice, we dissected tumors in animals treated with both drugs 7 days after the first PCC1 administration, and the time point of 7 days after administration was selected mainly because drug-resistant clones had not yet formed in cancer cells in the lesion at this time. […] As supporting evidence, when PCC1 was applied during treatment, caspase 3 cleavage activity was increased, which was a typical hallmark of apoptosis (FIG. 29).

senescent PSC27 cells = assay: Caspase 3/7 activity / drug-induced apoptosis in senescent cells; assay type: cell-based, human; settings: QVD-OPh, 50 μM PCC1
Method: PSC27 cells gradually entered the senescent stage after being treated with BLEO for 12 hours under culture conditions. 50 μM PCC1 was added to the medium of senescent cells starting from day 7, NucLight Rapid Red reagent was used to label the cells, and caspase 3/7 reagent (IncuCyte) was used for apoptosis detection. Caspase 3/7 activity was detected every 4 hours (n=3).
Statistical differences are obtained by two-way ANOVA (Turkey' test).
PSC27 cells were plated in a 96-well dish, and the cells were induced to senescence under the treatment of 50 μg/mL BLEO. PCC1 and ABT263 were added at concentrations of 50 μM and 1.0 μM, respectively. Cell culture medium was supplemented with Incucyte Nuclight fast Red Reagent (Essen Bioscience) and Incucyte C-3/7 Apoptosis Reagent (Essen Bioscience). Representative field of view was selected to take pictures.

PSC27 cells = assay: Bleomycin-induced senescence of PSC27 stromal cells (SA-β-Gal, BrdU, DDR foci staining); assay type: cell-based, human
Method: The primary normal human prostate stromal cell line PSC27 (obtained from Fred Hutchinson Cancer Research Center, USA) was cultured in an incubator at 37° C. and 5% CO2, and proliferated and passaged in PSCC complete culture medium.
To cause cell damage, 50 μg/mL bleomycin (BLEO) was added to the culture medium when PSC27 cells grew to 80% (abbreviated as […]). After 12 hours of drug treatment, the cells were simply washed 3 times with PBS, left in the culture medium for 7-10 days, and then the subsequent experiments were performed.
For immunofluorescent staining, target cells were preseeded on coverslips for at least 24 h after culture in dishes. After a brief wash, the cells were fixed with 4% paraformaldehyde in PBS for 8 min and blocked with 5% normal goat serum (NGS, Thermo Fisher) for 30 min. Mouse monoclonal antibody-anti-phospho-Histone H2A.X (Ser139) (clone JBW301, Millipore) and mouse monoclonal antibody-anti-BrdU (Cat# 347580, BD Biosciences), and secondary antibody Alexa Fluor® 488 (or 594)-Eurolink's F(ab')2 were sequentially added to the slides coated with the fixed cells. Nuclei were counterstained with 2 μg/m DAPI. The most representative image was selected from the three observation fields for data analysis and result display. FV1000 laser scanning confocal microscope (Olympus) was used to acquire confocal fluorescence images of cells.
Senescence-associated (3-galactosidase (SA-β-Gal) staining was performed following a previously reported procedure (Debacq-Chainiaux et al., 2009). Briefly, cells in culture dishes were washed with PBS and fixed at room temperature. Cells were fixed in 2% formaldehyde and 0.2% glutaraldehyde for 3 minutes. SA-β-Gal was used for staining with freshly prepared staining solution overnight at 37° C. Images were taken on the next day and the percentage of positive cells per unit area was calculated.

## CC1(C)CCC(c2ccc(Cl)cc2)=C(CN2CCN(c3ccc(C(=O)NS(=O)(=O)c4ccc(N[C@H](CCN5CCOCC5)CSc5ccccc5)c(S(=O)(=O)C(F)(F)F)c4)cc3)CC2)C1 [Navitoclax]
HUVECs
  ability to target senescent cells: able to target
[1]
  ability to target senescent cells: not
[2]
  ability to target senescent cells: can target and kill senescent cells
[3]
  ability to target senescent cells: less effective

## CC[C@]1(O)C[C@H]2CN(CCc3c([nH]c4ccccc34)[C@@](C(=O)OC)(c3cc4c(cc3OC)N(C=O)[C@H]3[C@@](O)(C(=O)OC)[C@H](OC(C)=O)[C@]5(CC)C=CCN6CC[C@]43[C@@H]65)C2)C1 [VIN, vincristine]
[4]; end of 8th week
  tumor volume, drug used alone: could reduce the tumor volume
[4]
  tumor volume, drug administered together with PCC1: no further tumor shrinkage

## COc1cccc2c1C(=O)c1c(O)c3c(c(O)c1C2=O)C[C@@](O)(C(=O)CO)C[C@@H]3O[C@H]1C[C@H](N)[C@H](O)[C@H](C)O1 [DOX, doxorubicin]
[4]
  tumor volume, drug administered together with PCC1: could roughly repeat the significant effect

## CC(=O)O[C@@]12CO[C@@H]1C[C@H](O)[C@@]1(C)C(=O)[C@H](O)C3=C(C)[C@@H](OC(=O)[C@H](O)[C@@H](NC(=O)OC(C)(C)C)c4ccccc4)C[C@@](O)([C@@H](OC(=O)c4ccccc4)[C@H]21)C3(C)C [DOC, docetaxel]
[4]; end of 8th week
  tumor volume, drug used alone: could reduce the tumor volume
[4]
  tumor volume, drug administered together with PCC1: no further tumor shrinkage

## O=C1c2c(O)ccc(O)c2C(=O)c2c(NCCNCCO)ccc(NCCNCCO)c21 [MIT, mitoxantrone, reference compound]
[4]; single agent, i.p., end of 8th week
  reduction in tumor size compared to placebo: 44.0%
[5]
  senescent cells in tumor tissue: induced the appearance of a large number of senescent cells
SASP factors
  expression of SASP factors (IL6, CXCL8, SPINK1, WNT16B, GM-CSF, MMP3, IL1α) and p16INK4A in lesions: significantly elevated
[6]
  degree of DNA damage and apoptosis: significant increase

## CC(C)[C@H](NC(=O)c1ccc2ccccc2n1)C(=O)N[C@@H](CC(=O)O)C(=O)COc1c(F)cccc1F [QVD, reference compound]
Senescent PSC27 cells
  effect of pan-caspase inhibitor on senolytic activity of PCC1: could prevent the killing of senescent cells by PCC1

## bleomycin
PSC27 cells; PSC27, 50 μg/mL BLEO 12 h, 7-10 days later, vs CTRL
  positive rate of SA-β-Gal staining: significant increase
PSC27 cells; PSC27, BLEO treated vs CTRL
  BrdU incorporation rate: greatly reduced
  DNA damage repair foci (DDR foci): significantly increased
